Experimental data taken from patent publication US11166980B2, “Compositions, systems, kits, and methods for treating an infection” (Novan, Inc., priority 2016, dated 2021).
In brackets after ≈: the same amount, converted by molar mass. Where two headings read alike, the source gives them in different places.

How the values were obtained:
Type in all cases: cell-based
Candida lusitaniae = assay: Minimum inhibitory concentration (CLSI); conditions: Clavispora lusitaniae, ATCC200950
Description: (§1) The minimum inhibitory concentration (MIC) of Nitricil™ NVN1 was determined in vitro for 40 strains of fungi to determine the spectrum of antifungal activity. All MIC testing was conducted in accordance with the Clinical and Laboratory Standards Institute (CLSI) guidelines for antimicrobial testing of yeasts (M27-A2) and filamentous fungi (M38-A2), apart from the lipophilic Malassezia species, which were incubated in supplemented buffered RPMI-1640 medium. The challenge strains were exposed to a series of doubling dilutions of Nitricil™ NVN1 prepared in RPMI-1640 medium in triplicate. Fungal species were also challenged with ketoconazole, prepared in DMSO, as a comparator. Tubes were inoculated with fungal suspensions to a final concentration of 0.5-2.5×10^3 cells/mL for yeasts and 0.4-5.0×10^4 colony-forming units (CFU)/mL, for filamentous fungi. The MIC was determined following a 1- to 4-day incubation period.

Candida albicans = assay: Minimum inhibitory concentration (CLSI)
Description: as §1

Candida tropicalis = assay: Minimum inhibitory concentration (CLSI); conditions: NCPF8760
Description: as §1

Fusarium solani = assay: Minimum inhibitory concentration (CLSI); conditions: ATCC56480
Description: as §1

Fusarium keratoplasticum = assay: Minimum inhibitory concentration (CLSI); conditions: ATCC36031
Description: as §1

[1] = tested on: Trichophyton mentagrophytes; assay: Minimum inhibitory concentration (CLSI)
Description: as §1

Epidermophyton floccosum = assay: Minimum inhibitory concentration (CLSI)
Description: as §1

Fusarium oxysporum = assay: Minimum inhibitory concentration (CLSI); conditions: ATCC62705
Description: as §1

Trichophyton rubrum = assay: Minimum inhibitory concentration (CLSI)
Description: as §1

40 strains of fungi = assay: Minimum inhibitory concentration, whole panel
Description: as §1
The broad-spectrum antifungal activity of Nitricil™ NVN1 was assessed via growth inhibition experiments against 40 different fungal strains per CLSI M27-A2 and M38-A2 methodology (CLSI, 2008) for assessment of yeasts and filamentous fungi respectively utilizing ketoconazole as the antifungal comparator. […]

Malassezia furfur = assay: Minimum inhibitory concentration (supplemented RPMI-1640)
Description: as §1

CC(=O)N1CCN(c2ccc(OCC3COC(Cn4ccnc4)(c4ccc(Cl)cc4Cl)O3)cc2)CC1 (centres unmarked) [Ketoconazole, ketoconazole]
MIC (Candida lusitaniae): < 0.063 µg/mL
MIC (Candida albicans; Candida albicans, ATCC10231, strain ATCC #10231, read-out: MIC): < 0.063 µg/mL
MIC (Candida albicans; Candida albicans, ATCC58716, strain ATCC #58716, read-out: MIC): 16 µg/mL (≈ 30.1 µM)
MIC (Candida albicans; Candida albicans, ATCC96901, strain ATCC #96901, read-out: MIC): > 32 µg/mL
MIC (Candida albicans; Candida albicans, strain BLSI #112613Ca1, read-out: MIC): > 32 µg/mL
MIC (Candida albicans; strain BLSI #112613Ca2): >32.0 µg/mL
MIC (Candida tropicalis): 32 µg/mL (≈ 60.2 µM)
MIC (Fusarium solani): > 32 µg/mL
MIC (Fusarium keratoplasticum): > 32 µg/mL
MIC ([1]; ATCC9533, strain ATCC #9533, read-out: MIC): 1 µg/mL (≈ 1.88 µM)
MIC ([1]; ATCC18749): 0.125 µg/mL (≈ 0.235 µM)
MIC ([1]; ATCC28939, strain ATCC #28939, read-out: MIC): 1 µg/mL (≈ 1.88 µM)
MIC ([1]; NCPF0224, strain NCPF #0224, read-out: MIC): 0.25 µg/mL (≈ 0.47 µM)
MIC ([1]; NCPF5024, strain NCPF #5024, read-out: MIC): 0.5 µg/mL (≈ 0.941 µM)
MIC (Epidermophyton floccosum; ATCC38826, strain ATCC #38826, read-out: MIC): 4 µg/mL (≈ 7.53 µM)
MIC (Epidermophyton floccosum; ATCC44685): 0.125 µg/mL (≈ 0.235 µM)
MIC (Epidermophyton floccosum; ATCC52061, strain ATCC #52061, read-out: MIC): 1 µg/mL (≈ 1.88 µM)
MIC (Epidermophyton floccosum; ATCC52063, strain ATCC #52063, read-out: MIC): > 32 µg/mL
MIC (Epidermophyton floccosum; ATCC52066, strain ATCC #52066, read-out: MIC): > 32 µg/mL
MIC (Epidermophyton floccosum; NCPF5011, strain NCPF #5011, read-out: MIC): > 32 µg/mL
MIC (Epidermophyton floccosum; NCPF5012, strain NCPF #5012, read-out: MIC): > 32 µg/mL
MIC (Fusarium oxysporum): > 32 µg/mL
MIC (Trichophyton rubrum; ATCC10218, strain ATCC #10218, read-out: MIC): < 0.063 µg/mL
MIC (Trichophyton rubrum; ATCC22402, strain ATCC #22402, read-out: MIC): < 0.063 µg/mL
MIC (Trichophyton rubrum; ATCC28188): 0.125 µg/mL (≈ 0.235 µM)
MIC (Trichophyton rubrum; ATCC44697, strain ATCC #44697, read-out: MIC): > 32 µg/mL
MIC (Trichophyton rubrum; NCPF0113, strain NCPF #0113, read-out: MIC): > 32 µg/mL
MIC (Trichophyton rubrum; NCPF0118, strain NCPF #0118, read-out: MIC): < 0.063 µg/mL
MIC (Trichophyton rubrum; NCPF0295, strain NCPF #0295, read-out: MIC): > 32 µg/mL
MIC (Trichophyton rubrum; NCPF5025, strain NCPF #5025, read-out: MIC): > 32 µg/mL
MIC (Trichophyton rubrum; strain ATCC #MYA-4438, read-out: MIC): > 32 µg/mL
fold range of MIC values for all fungal species tested (40 strains of fungi): > 500 fold
MIC (Malassezia furfur; ATCC14521, strain ATCC #14521): > 32 µg/mL
MIC (Malassezia furfur; NCPF3349, strain NCPF #3349): > 32 µg/mL
MIC (Malassezia furfur; NCPF8211, strain NCPF #8211): 16 µg/mL (≈ 30.1 µM)
